Reference: patent publication US20150087037A1, “FERMENTATION PROCESS” (LanzaTech New Zealand Limited, priority 2013, published 2015)

Tests used:
Format in all cases: cell-based, Clostridium autoethanogenum
[1] = tested on: C. autoethanogenum DSM23693; test: Linked two reactor (R1, R2) fermentation system, continuous 2-HIBA addition (Examples 2 and 3)
Procedure: (§1) Fermentations with C. autoethanogenum DSM23693 were carried out in 1.5 L bioreactors at 37° C. The media was prepared according to Table 1. To achieve anaerobicity the reactor vessel was sparged with nitrogen. Prior to inoculation, the gas was switched to either steel mill gas containing H2 (3%), N2 (30%), CO (47%) and CO2 (20%) or pure gases (50% CO, 18-40% CO2, with the balance N2). The gas flow was initially set at 67 ml/min/L, increasing to 200 ml/min during mid-exponential phase, while the agitation was increased from 200 rpm to 800. Na2S was dosed into the bioreactor at 0.25 ml/hr. Once the OD600 reached 1.5, the bioreactor was switched to a continuous mode at a dilution rate of 2.0-1.6 d-l and a bacterial dilution rate of 0.9-0.6 d-l. During continuous mode gas and agitation were adjusted to 900-950 rpm and 800-900 ml/min. Na2S was increased to 1.0 ml/hr.
(§2) Liquid culture samples were taken at differing intervals over the duration of the fermentation. These samples were used to establish the optical density at 600 nm (spectrophotometer) and the level of substrates and products (high performance liquid chromatography—HPLC). HPLC was routinely used to quantify the level of acetate, ethanol and 2,3-butanediol. The input and output gas compositions were analysed using a gas chromatographer (GC), allowing measurement of CO and H2 consumption and CO2 production by the culture.
A two reactor system was used to examine the impact of continuous 2-HIBA addition on the metabolite profile. Initially 0.5 g/L/day (4.8 mM/day) 2-HIBA was added to the R2 only, this increased the production of 2,3-BDO but the ratio only dropped to as low as 1.9:1. Continuous addition of 2-HIBA at 0.5 g/L/day (4.8 mM/day) was then added to the R1. […] This would be achieved by improving the concentration in both the R1 and the R2 as the 2-HIBA is transferred from the R1 to the R2 (through liquid flow) along with improved 2,3-BDO concentrations. The 2,3-BDO concentration increased from 5.7 g/L to 14 g/L in the R1 and from 16 g/L to 21 g/L in the R2 (see FIGS. 3 and 4). The ratio of ethanol:2,3-BDO dropped to 1:1 in the R1 and 1.3:1 in the R2 and remained stable for a period of eight days. The improvement of the ratio was achieved as a result of increased 2,3-BDO concentration and a drop in ethanol production.
Over time the ethanol concentration after the 2-HIBA addition improved whilst the concentration of 2,3-BDO remained stable, this had the effect of improving the total alcohol productivity of the system.
The results achieved in Example 2 were repeated with the aim to improve the overall titre of 2,3-BDO. In this experiment the 2-HIBA concentration was increased to 1 g/L/day (9.6 mM/day).

[2] = tested on: C. autoethanogenum DSM23693; test: Minimum 2-HIBA concentration needed to impact 2,3-butanediol production, continuous addition through the media (Example 4)
Procedure: as §1, §2
In order to understand the minimum concentrations needed to generate the same effect the concentration used was dropped to 0.1 g/L (0.96 mM) in one example and 0.05 g/L (0.48 mM) in another example. Both fermentations had gas increased to minimize acetate and maximize ethanol production. Additional CO2 was blended into the gas stream to maximize 2,3-BDO production, the gas blend used was 50% CO, 35% CO2, 1.5% H2 with N2 balance. The dilution rate and bacterial dilution rate were adjusted to 1.8 day^−1 and 0.8 day^−1 respectively. Once stable data was collected continuous 2-HIBA addition through the media was started and resulting impact on metabolite concentrations observed. In both examples the ratio before the addition of 2-HIBA was about 2:1, and the resulting impact on the Ethanol:2,3-BDO ratio was proportional to the concentration of 2-HIBA used. In the first example where 0.1 g/L (0.96 mM) was used the ratio improved to 1:1 and when the concentration was halved (in the second example) the response was an improvement in the ratio to only 1.5:1.
In two further experiments concentrations from 0.01 g/L to 0.1 g/L (0.096, 0.24, 0.48, 0.72, 0.96 mM) were added and the impact on the metabolites observed. Again the fermentations had gas increased to minimize acetate and maximize ethanol production with CO2 blended into the gas stream to maximize 2,3-BDO production. The dilution rate and bacterial dilution rate were adjusted to 1.8 day^−1 and 0.9 day^−1 respectively. The gas blend used was 42% CO, 35% CO2, 1.5% H2 with N2 balance.

[3] = tested on: branch chain amino acid production; test: Monitoring BCAA production during 2-HIBA addition (Example 7); conditions: FIG. 11
Excerpt: In order to generate further evidence that 2-HiBA interferes with branch chain amino acid production, the concentrations of these amino acids were monitored directly before and after the addition of 2-HIBA. FIG. 11 illustrates the results; immediately after the addition of 2-HIBA the concentrations of valine, leucine and isoleucine drop as well as biomass.

[4] = R1, average across eight days, 0.5 g/L/day 2-HIBA
[5] = R1, gas data average across eight days, 0.5 g/L/day 2-HIBA
[6] = R2, average across eight days, 0.5 g/L/day 2-HIBA
[7] = R2, gas data average across eight days, 0.5 g/L/day 2-HIBA
[8] = over time after 2-HIBA addition

Compound: CC(C)(O)C(=O)O [2-HIBA, 2-hydroxyisobutyric acid]
- impact on CO and hydrogen uptake ([1]; 0.5 g/L/day 2-HIBA, FIGS. 5 and 6): did not negatively impact
- 2,3-BDO concentration in R1 ([1]; 0.5 g/L/day (4.8 mM/day) 2-HIBA added to R1, increased from 5.7 g/L): 14 g/L
- impact on gas uptake ([1]; 1 g/L/day (9.6 mM/day) 2-HIBA): not negatively impacted
- overall 2,3-BDO concentration ([1]; 1 g/L/day (9.6 mM/day) 2-HIBA, highest reached, FIG. 7): 23.9 g/L
- Acetate ([1]; R1, average across eight days of stable operation, 0.5 g/L/day 2-HIBA): 6.5 g/L
- 2,3 BDO [1, 4]: 13.7 g/L
- 2,3 BDO productivity [1, 4]: 27 g/L/day
- Biomass [1, 4]: 9.2 g/L
- Ethanol [1, 4]: 14.4 g/L
- Lactate [1, 4]: 0.0 g/L
- CO2 production [1, 5]: 5630 mmol/L
- CO uptake [1, 5]: -8830 mmol/L
- CO utilisation [1, 5]: 53%
- H2 production [1, 5]: 423 mmol/L
- 2,3 BDO [1, 6]: 21.3 g/L
- 2,3 BDO productivity [1, 6]: 16 g/L/day
- Acetate [1, 6]: 7.8 g/L
- Biomass [1, 6]: 15.6 g/L
- Ethanol [1, 6]: 28.3 g/L
- Lactate [1, 6]: 0.0 g/L
- CO2 production [1, 7]: 4932 mmol/L
- CO uptake [1, 7]: -7930 mmol/L
- CO utilisation [1, 7]: 63%
- H2 production [1, 7]: 413 mmol/L
- lowest concentration that impacts on the production of 2,3-butanediol ([2]; 0.01 g/L to 0.1 g/L tested, 0.01 g/L = 0.096 mM): 0.01 g/L
- CO uptake ([2]; Expt 1: 0.96 mM/day HIBA addition, before 9.4): 9.8 mol/L/day
- 2,3-BDO ([2]; Expt 1: 0.96 mM/day HIBA addition, before 9.67): 16.35 g/L
- Biomass ([2]; Expt 1: 0.96 mM/day HIBA addition, before 10.7): 9.83 g/L
- Ethanol ([2]; Expt 1: 0.96 mM/day HIBA addition, before 20.33): 17.05 g/L
- CO uptake ([2]; Expt 2: 0.48 mM/day HIBA addition, before 8.2): 8 mol/L/day
- 2,3-BDO ([2]; Expt 2: 0.48 mM/day HIBA addition, before 8.42): 10.56 g/L
- Biomass ([2]; Expt 2: 0.48 mM/day HIBA addition, before 12.69): 12.14 g/L
- Ethanol ([2]; Expt 2: 0.48 mM/day HIBA addition, before 18.73): 15.56 g/L
- drop of Ethanol:2,3-BDO ratio ([2]; for every 0.05 g/L (0.48 mM) added to a stable fermentation, data of four examples, FIG. 8): 0.5 units
- concentrations of valine, leucine and isoleucine and biomass ([3]; immediately after the addition of 2-HIBA (100 mg, 0.96 mM)): drop
- concentration of isoleucine [3, 8]: appears to recover
- concentration of leucine and valine [3, 8]: remaining lower than the value before 2-HIBA addition
